The test has as its target p62^cplx-associated PI3-kinase (100-kD catalytic subunit). Briefly: PI3-kinase lipid kinase assay. It counts as biochemical, Rattus norvegicus.

Molecules are shown by their SMILES. pIC50: −log10 of the molar value.

A word on the pIC50: it is the IC50 on a negative log10 scale, so that one unit is a factor of ten. Lower therefore signals a high IC50.

With `COC[C@H]1OC(=O)c2coc3c2[C@@]1(C)C1=C(C3=O)[C@@H]2CCC(=O)[C@@]2(C)C[C@H]1OC(C)=O` [wortmannin], the pIC50 was roughly 5.46.

Source of the values: publication PMC2139785 (The Journal of Cell Biology, 1997).
